Columns and labels:
Assay in all cases: relative viability (nuclei count vs DMSO), 5 days (fraction); higher = more cells survive
R406 + Dasatinib = compound: COc1cc(Nc2ncc(F)c(Nc3ccc4c(n3)NC(=O)C(C)(C)O4)n2)cc(OC)c1OC [R406] + Cc1nc(Nc2ncc(C(=O)Nc3c(C)cccc3Cl)s2)cc(N2CCN(CCO)CC2)n1 [Dasatinib] (partner 0.075 µM)
Method in brief: (§1)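 Lung cancer cell lines, seeded in 1536-well plates, were treated the following day by pin tool with a single drug or with five library-drug doses (not always all listed) in √10 steps on top of a fixed anchor-drug dose. Cells were fixed and nuclei stained in one step after 5 days, and nuclei were counted. Relative viability is the nuclei count for treated wells divided by that for vehicle wells, reported as medians of duplicate plates.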

Daporinad + Trametinib = compound: O=C(/C=C/c1cccnc1)NCCCCC1CCN(C(=O)c2ccccc2)CC1 [Daporinad] + CC(=O)Nc1cccc(-n2c(=O)n(C3CC3)c(=O)c3c(Nc4ccc(I)cc4F)n(C)c(=O)c(C)c32)c1 [Trametinib] (partner 0.02 µM)
Method in brief: as §1

Daporinad + Foretinib = compound: O=C(/C=C/c1cccnc1)NCCCCC1CCN(C(=O)c2ccccc2)CC1 [Daporinad] + COc1cc2c(Oc3ccc(NC(=O)C4(C(=O)Nc5ccc(F)cc5)CC4)cc3F)ccnc2cc1OCCCN1CCOCC1 [Foretinib] (partner 0.25 µM)
Method in brief: as §1

Daporinad + Pictilisib = compound: O=C(/C=C/c1cccnc1)NCCCCC1CCN(C(=O)c2ccccc2)CC1 [Daporinad] + CS(=O)(=O)N1CCN(Cc2cc3nc(-c4cccc5[nH]ncc45)nc(N4CCOCC4)c3s2)CC1 [Pictilisib] (partner 1 µM)
Method in brief: as §1

CAL-12T
relative viability (R406 + Dasatinib; first compound 0.08 µM): 0.357 | relative viability (R406 + Dasatinib; first compound 0.253 µM): 0.397 | relative viability (R406 + Dasatinib; first compound 0.8 µM): 0.483 | relative viability (R406 + Dasatinib; first compound 2.53 µM): 0.0973 | relative viability (R406 + Dasatinib; first compound 8 µM): 0.0797 | relative viability (Daporinad + Trametinib; first compound 0.0005 µM): 0.275 | relative viability (Daporinad + Trametinib; first compound 0.001581 µM): 0.378 | relative viability (Daporinad + Trametinib; first compound 0.005 µM): 0.37 | relative viability (Daporinad + Trametinib; first compound 0.01581 µM): 0.229 | relative viability (Daporinad + Foretinib; first compound 0.0005 µM): 1.09 | relative viability (Daporinad + Foretinib; first compound 0.001581 µM): 0.938 | relative viability (Daporinad + Foretinib; first compound 0.005 µM): 0.758 | relative viability (Daporinad + Foretinib; first compound 0.01581 µM): 0.272 | relative viability (Daporinad + Pictilisib; first compound 0.0005 µM): 0.305 | relative viability (Daporinad + Pictilisib; first compound 0.005 µM): 0.442 | relative viability (Daporinad + Pictilisib; first compound 0.01581 µM): 0.494

NCI-H596
relative viability (R406 + Dasatinib; first compound 0.08 µM): 0.619 | relative viability (R406 + Dasatinib; first compound 0.253 µM): 0.61 | relative viability (R406 + Dasatinib; first compound 0.8 µM): 0.686 | relative viability (R406 + Dasatinib; first compound 2.53 µM): 0.505 | relative viability (R406 + Dasatinib; first compound 8 µM): 0.173 | relative viability (Daporinad + Trametinib; first compound 0.0005 µM): 0.704 | relative viability (Daporinad + Trametinib; first compound 0.001581 µM): 0.791 | relative viability (Daporinad + Trametinib; first compound 0.005 µM): 0.74 | relative viability (Daporinad + Trametinib; first compound 0.01581 µM): 0.48 | relative viability (Daporinad + Foretinib; first compound 0.0005 µM): 0.864 | relative viability (Daporinad + Foretinib; first compound 0.001581 µM): 0.965 | relative viability (Daporinad + Foretinib; first compound 0.005 µM): 0.819 | relative viability (Daporinad + Foretinib; first compound 0.01581 µM): 0.325 | relative viability (Daporinad + Pictilisib; first compound 0.0005 µM): 0.402 | relative viability (Daporinad + Pictilisib; first compound 0.001581 µM): 0.371 | relative viability (Daporinad + Pictilisib; first compound 0.005 µM): 0.421 | relative viability (Daporinad + Pictilisib; first compound 0.01581 µM): 0.448

NCI-H1755
relative viability (R406 + Dasatinib; first compound 0.08 µM): 0.401 | relative viability (R406 + Dasatinib; first compound 0.253 µM): 0.508 | relative viability (R406 + Dasatinib; first compound 0.8 µM): 0.407 | relative viability (R406 + Dasatinib; first compound 2.53 µM): 0.264 | relative viability (R406 + Dasatinib; first compound 8 µM): 0.135 | relative viability (Daporinad + Trametinib; first compound 0.0005 µM): 0.751 | relative viability (Daporinad + Trametinib; first compound 0.001581 µM): 0.761 | relative viability (Daporinad + Trametinib; first compound 0.005 µM): 0.779 | relative viability (Daporinad + Trametinib; first compound 0.01581 µM): 0.768 | relative viability (Daporinad + Foretinib; first compound 0.0005 µM): 0.928 | relative viability (Daporinad + Foretinib; first compound 0.001581 µM): 0.46 | relative viability (Daporinad + Foretinib; first compound 0.005 µM): 0.848 | relative viability (Daporinad + Foretinib; first compound 0.01581 µM): 0.966 | relative viability (Daporinad + Pictilisib; first compound 0.0005 µM): 0.442 | relative viability (Daporinad + Pictilisib; first compound 0.001581 µM): 0.44 | relative viability (Daporinad + Pictilisib; first compound 0.005 µM): 0.452 | relative viability (Daporinad + Pictilisib; first compound 0.01581 µM): 0.457

NCI-H2023
relative viability (R406 + Dasatinib; first compound 0.08 µM): 0.519 | relative viability (R406 + Dasatinib; first compound 0.253 µM): 0.642 | relative viability (R406 + Dasatinib; first compound 0.8 µM): 0.699 | relative viability (R406 + Dasatinib; first compound 2.53 µM): 0.357 | relative viability (R406 + Dasatinib; first compound 8 µM): 0.0963 | relative viability (Daporinad + Trametinib; first compound 0.0005 µM): 0.605 | relative viability (Daporinad + Trametinib; first compound 0.001581 µM): 0.523 | relative viability (Daporinad + Trametinib; first compound 0.005 µM): 0.539 | relative viability (Daporinad + Trametinib; first compound 0.01581 µM): 0.621 | relative viability (Daporinad + Foretinib; first compound 0.0005 µM): 0.818 | relative viability (Daporinad + Foretinib; first compound 0.001581 µM): 0.682 | relative viability (Daporinad + Foretinib; first compound 0.005 µM): 0.743 | relative viability (Daporinad + Foretinib; first compound 0.01581 µM): 0.975 | relative viability (Daporinad + Pictilisib; first compound 0.0005 µM): 0.252 | relative viability (Daporinad + Pictilisib; first compound 0.001581 µM): 0.3 | relative viability (Daporinad + Pictilisib; first compound 0.005 µM): 0.245 | relative viability (Daporinad + Pictilisib; first compound 0.01581 µM): 0.278

NCI-H2009
relative viability (R406 + Dasatinib; first compound 0.08 µM): 0.25 | relative viability (R406 + Dasatinib; first compound 0.253 µM): 0.302 | relative viability (R406 + Dasatinib; first compound 0.8 µM): 0.328 | relative viability (R406 + Dasatinib; first compound 2.53 µM): 0.182 | relative viability (R406 + Dasatinib; first compound 8 µM): 0.13 | relative viability (Daporinad + Trametinib; first compound 0.0005 µM): 0.261 | relative viability (Daporinad + Trametinib; first compound 0.001581 µM): 0.35 | relative viability (Daporinad + Trametinib; first compound 0.005 µM): 0.315 | relative viability (Daporinad + Trametinib; first compound 0.01581 µM): 0.31 | relative viability (Daporinad + Foretinib; first compound 0.0005 µM): 1.16 | relative viability (Daporinad + Foretinib; first compound 0.001581 µM): 1.24 | relative viability (Daporinad + Foretinib; first compound 0.005 µM): 1.23 | relative viability (Daporinad + Foretinib; first compound 0.01581 µM): 0.897 | relative viability (Daporinad + Pictilisib; first compound 0.0005 µM): 0.784 | relative viability (Daporinad + Pictilisib; first compound 0.001581 µM): 1 | relative viability (Daporinad + Pictilisib; first compound 0.005 µM): 0.938 | relative viability (Daporinad + Pictilisib; first compound 0.01581 µM): 0.661

Reference: the supplement of paper PMC10307832
